Like-named read-outs stand apart in the source and are kept apart here.
What was measured:
Drosophila OR10a = biological target: T1, Drosophila OR10a (Drosophila melanogaster, UniProt Q9VYZ1); assay: Calcium ion fluorescence (GCaMP6) assay, OR10a stable HEK293 cell line; type: cell-based
T1 construct: expressed in transfected cells
T1 sequence (Q9VYZ1 1-406): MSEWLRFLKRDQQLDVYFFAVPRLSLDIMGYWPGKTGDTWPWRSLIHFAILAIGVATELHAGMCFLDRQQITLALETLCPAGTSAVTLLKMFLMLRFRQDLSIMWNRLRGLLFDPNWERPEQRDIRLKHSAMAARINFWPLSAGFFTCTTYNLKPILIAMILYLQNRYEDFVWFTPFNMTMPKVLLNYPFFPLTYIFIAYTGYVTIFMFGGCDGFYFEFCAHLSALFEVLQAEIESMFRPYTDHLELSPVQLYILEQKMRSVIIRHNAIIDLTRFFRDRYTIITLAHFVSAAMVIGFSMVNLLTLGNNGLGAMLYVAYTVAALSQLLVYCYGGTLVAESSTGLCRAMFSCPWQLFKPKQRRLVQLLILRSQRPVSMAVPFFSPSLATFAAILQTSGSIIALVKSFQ
T1 sequence (Q9VNB5 1-486 partner): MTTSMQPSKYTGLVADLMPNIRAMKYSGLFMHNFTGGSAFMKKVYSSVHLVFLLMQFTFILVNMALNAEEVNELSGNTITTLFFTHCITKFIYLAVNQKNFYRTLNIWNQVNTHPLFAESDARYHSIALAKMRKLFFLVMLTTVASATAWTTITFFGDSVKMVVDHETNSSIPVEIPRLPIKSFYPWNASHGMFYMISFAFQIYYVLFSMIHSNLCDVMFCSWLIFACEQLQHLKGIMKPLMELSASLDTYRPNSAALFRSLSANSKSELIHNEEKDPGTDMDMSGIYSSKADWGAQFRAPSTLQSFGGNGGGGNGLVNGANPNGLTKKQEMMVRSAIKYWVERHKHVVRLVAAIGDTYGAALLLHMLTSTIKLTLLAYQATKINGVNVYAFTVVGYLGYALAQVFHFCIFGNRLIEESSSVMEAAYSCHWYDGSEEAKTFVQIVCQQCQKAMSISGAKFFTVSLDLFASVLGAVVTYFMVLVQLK
Outline: (§1)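 Responses are VUAA1-normalized ΔF: each VOC-evoked calcium signal, (FMAX−F0)/F0 over 30 s after injection, divided by the same line's mean 50 µM VUAA1 response. Cells were doxycycline-induced HEK293 with GCaMP6 and the cognate Drosophila OR, in HEPES buffer pH 7.3; ligands tested 0.01–100 μM.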

Drosophila OR85b = biological target: T2, Drosophila OR85b (Drosophila melanogaster, UniProt Q9VHQ7); assay: Calcium ion fluorescence (GCaMP6) assay, OR85b stable HEK293 cell line; type: cell-based; settings: for activation at 1 µM / activation at 10 µM / activation at 100 µM: HEK293, read-out: OR85b response (VUAA1-normalized response); for Average response: VUAA1-normalized response, mean of biological replicates
T2 construct: expressed in transfected cells
T2 sequence (Q9VHQ7 1-390): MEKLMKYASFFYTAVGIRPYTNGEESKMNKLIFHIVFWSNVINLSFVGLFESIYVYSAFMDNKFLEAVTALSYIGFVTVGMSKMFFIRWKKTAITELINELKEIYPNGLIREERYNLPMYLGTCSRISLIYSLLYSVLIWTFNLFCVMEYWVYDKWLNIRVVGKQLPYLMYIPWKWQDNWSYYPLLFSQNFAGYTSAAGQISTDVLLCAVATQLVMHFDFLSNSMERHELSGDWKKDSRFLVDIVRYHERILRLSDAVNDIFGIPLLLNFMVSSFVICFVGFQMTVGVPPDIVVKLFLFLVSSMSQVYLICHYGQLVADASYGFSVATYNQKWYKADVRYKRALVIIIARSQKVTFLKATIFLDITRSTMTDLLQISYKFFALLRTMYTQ
T2 sequence (Q9VNB5 1-486 partner): T1 sequence (Q9VNB5 1-486 partner)
Outline: as §1

[1] = HEK293, 1 μM VOC, 50 μM VUAA1 = 1, responses not exceeding 0.05 considered 0, read-out: OR10a Average response (VUAA1-normalized)
[2] = HEK293, 10 μM VOC, 50 μM VUAA1 = 1, responses not exceeding 0.05 considered 0, read-out: OR10a Average response (VUAA1-normalized)
[3] = HEK293, 100 μM VOC, 50 μM VUAA1 = 1, responses not exceeding 0.05 considered 0, read-out: OR10a Average response (VUAA1-normalized)
[4] = HEK293, read-out: OR10a response (VUAA1-normalized response), VOC concentration 1 μM
[5] = HEK293, read-out: OR10a response (VUAA1-normalized response), VOC concentration 10 μM
[6] = HEK293, read-out: OR10a response (VUAA1-normalized response), VOC concentration 100 μM
[7] = concentration 1, normalized fluorescence change, values below 0.05 threshold given as 0
[8] = concentration 10, normalized fluorescence change, values below 0.05 threshold given as 0
[9] = concentration 100, normalized fluorescence change, values below 0.05 threshold given as 0
[10] = ligand concentration 1 (unit not given), threshold 0.05, below shown as 0
[11] = ligand concentration 10 (unit not given), threshold 0.05, below shown as 0
[12] = ligand concentration 100 (unit not given), threshold 0.05, below shown as 0

CCCCCC(=O)CC [3-octanone]
activation at 1 µM (Drosophila OR10a; [1]): 2%
activation at 10 µM (Drosophila OR10a; [2]): 10%
activation at 100 µM (Drosophila OR10a; [3]): 2.65%
activation at 1 µM (Drosophila OR10a; [4]): 0%
activation at 10 µM (Drosophila OR10a; [5]): 10%
activation at 100 µM (Drosophila OR10a; [6]): 0%
activation at 1 µM (Drosophila OR85b): 0%
activation at 10 µM (Drosophila OR85b): 0%
activation at 100 µM (Drosophila OR85b): 9%
Average response (Drosophila OR85b; OR85b cell line, cc. 1 µM): 0.00
Average response (Drosophila OR85b; OR85b cell line, cc. 10 µM): 0.00
Average response (Drosophila OR85b; OR85b cell line, cc. 100 µM): 0.09
DF norm AVERAGE OR85b (Drosophila OR85b; [7]): 0
DF norm AVERAGE OR85b (Drosophila OR85b; [8]): 0
DF norm AVERAGE OR85b (Drosophila OR85b; [9]): 0.08805

C=C(C)C1CCC2(C)OC2C1 (single isomer, unassigned; (+)) [(+)-limonene oxide]
DF norm AVERAGE OR10a (Drosophila OR10a): 0
OR10a Average response (VUAA1-normalized) (Drosophila OR10a; 1 μM VOC, 50 μM VUAA1 = 1, responses not exceeding 0.05 considered 0): 0.00
OR10a Average response (VUAA1-normalized) (Drosophila OR10a; 10 μM VOC, 50 μM VUAA1 = 1, responses not exceeding 0.05 considered 0): 0.02
OR10a Average response (VUAA1-normalized) (Drosophila OR10a; 100 μM VOC, 50 μM VUAA1 = 1, responses not exceeding 0.05 considered 0): 0.00
OR10a response (VUAA1-normalized response) (Drosophila OR10a; VOC concentration 1 μM): 0.00
OR10a response (VUAA1-normalized response) (Drosophila OR10a; VOC concentration 10 μM): 0.00
OR10a response (VUAA1-normalized response) (Drosophila OR10a; VOC concentration 100 μM): 0.00
Average response (Drosophila OR85b; OR85b cell line, cc. 1 µM): 0.00
Average response (Drosophila OR85b; OR85b cell line, cc. 10 µM): 0.00
Average response (Drosophila OR85b; OR85b cell line, cc. 100 µM): 0.00
OR85b response (VUAA1-normalized response) (Drosophila OR85b; VOC concentration 1 μM): 0.00
OR85b response (VUAA1-normalized response) (Drosophila OR85b; VOC concentration 10 μM): 0.00
OR85b response (VUAA1-normalized response) (Drosophila OR85b; VOC concentration 100 μM): 0.00
DF norm AVERAGE OR85b (Drosophila OR85b; [7]): 0
DF norm AVERAGE OR85b (Drosophila OR85b; [8]): 0
DF norm AVERAGE OR85b (Drosophila OR85b; [9]): 0

CC/C=C\CCOC(C)=O [Z-3-hexenyl acetate]
OR10a response (VUAA1-normalized) at 1 μM (Drosophila OR10a; OR10a cell line, VOC concentration 1 μM): 0.14
OR10a response (VUAA1-normalized) at 10 μM (Drosophila OR10a; OR10a cell line, VOC concentration 10 μM): 0.00
OR10a response (VUAA1-normalized) at 100 μM (Drosophila OR10a; OR10a cell line, VOC concentration 100 μM): 0.00
OR85b response (VUAA1-normalized) at 1 μM (Drosophila OR85b; OR85b cell line, VOC concentration 1 μM): 0.15
OR85b response (VUAA1-normalized) at 10 μM (Drosophila OR85b; OR85b cell line, VOC concentration 10 μM): 0.00
OR85b response (VUAA1-normalized) at 100 μM (Drosophila OR85b; OR85b cell line, VOC concentration 100 μM): 0.00

C=C1CCC2CC1C2(C)C (stereo not drawn) [beta-pinene]
activation at 1 µM (Drosophila OR10a; HEK293, read-out: OR10a Average response (VUAA1-normalized), 1 μM VOC, 50 μM VUAA1 = 1, responses not exceeding 0.05 considered 0): 2.77%
activation at 10 µM (Drosophila OR10a; HEK293, read-out: OR10a Average response (VUAA1-normalized), 10 μM VOC, 50 μM VUAA1 = 1, responses not exceeding 0.05 considered 0): 4%
activation at 100 µM (Drosophila OR10a; HEK293, read-out: OR10a Average response (VUAA1-normalized), 100 μM VOC, 50 μM VUAA1 = 1, responses not exceeding 0.05 considered 0): 9%
activation at 1 µM (Drosophila OR10a; [4]): 0%
activation at 10 µM (Drosophila OR10a; [5]): 0%
activation at 100 µM (Drosophila OR10a; [6]): 9%
DF norm AVERAGE OR10a (Drosophila OR10a; [10]): 0
DF norm AVERAGE OR10a (Drosophila OR10a; [11]): 0
DF norm AVERAGE OR10a (Drosophila OR10a; [12]): 0.0885
activation at 1 µM (Drosophila OR85b): 0%
activation at 10 µM (Drosophila OR85b): 10%
activation at 100 µM (Drosophila OR85b): 9%
Average response (Drosophila OR85b; OR85b cell line, cc. 1 µM): 0.00
Average response (Drosophila OR85b; OR85b cell line, cc. 10 µM): 0.10
Average response (Drosophila OR85b; OR85b cell line, cc. 100 µM): 0.09
DF norm AVERAGE OR85b (Drosophila OR85b; [10]): 0
DF norm AVERAGE OR85b (Drosophila OR85b; [11]): 0.09683
DF norm AVERAGE OR85b (Drosophila OR85b; [12]): 0.0913

CCCC(O)CC (stereo not shown) [3-hexanol]
activation at 1 µM (Drosophila OR10a; [1]): 16%
activation at 10 µM (Drosophila OR10a; [2]): 2.57%
activation at 100 µM (Drosophila OR10a; [3]): 6%
activation at 1 µM (Drosophila OR10a; [4]): 16%
activation at 10 µM (Drosophila OR10a; [5]): 0%
activation at 100 µM (Drosophila OR10a; [6]): 6%
activation at 1 µM (Drosophila OR85b): 0%
activation at 10 µM (Drosophila OR85b): 10%
activation at 100 µM (Drosophila OR85b): 0%
Average response (Drosophila OR85b; OR85b cell line, cc. 1 µM): 0.00
Average response (Drosophila OR85b; OR85b cell line, cc. 10 µM): 0.10
Average response (Drosophila OR85b; OR85b cell line, cc. 100 µM): 0.0225
DF norm AVERAGE OR85b (Drosophila OR85b; [7]): 0
DF norm AVERAGE OR85b (Drosophila OR85b; [8]): 0.09908
DF norm AVERAGE OR85b (Drosophila OR85b; [9]): 0

— article PMC10709440, “High-throughput ligand profile characterization in novel cell lines expressing seven heterologous insect olfactory receptors for the detection of volatile plant biomarkers” (Scientific Reports, 2023)
